Laboratory results from ChEMBL document CHEMBL3734667 (Bioorg Med Chem, 2015).
Activity calls are given as the source filed them. No cut-off for these calls is given here.

How the values were obtained:
[1] = Selectivity index, ratio of CC50 for african green monkey Vero76 cells to EC50 for human CVB5; parameters: species or system Coxsackievirus B5, Vero 76
Human orthopneumovirus = assay: Antiviral activity against human RSV infected in african green monkey Vero76 cells assessed as inhibition of virus-induced cytopathogenicity after 5 days by plaque reduction assay; type: functional, organism-based; settings: human respiratory syncytial virus, Vero 76, 120 h
Coxsackievirus B5 = assay: Antiviral activity against human CVB5 infected in african green monkey Vero76 cells assessed as inhibition of virus-induced cytopathogenicity after 3 days by plaque reduction assay; type: functional, organism-based; settings: Enterovirus B, Vero 76, 72 h
[2] = Selectivity index, ratio of CC50 for african green monkey Vero76 cells to EC50 for human Sb-1; parameters: species or system Human poliovirus 1 strain Sabin, Vero 76
Vaccinia virus = assay: Antiviral activity against Vaccinia virus; type: functional, organism-based; settings: Orthopoxvirus vaccinia
Yellow fever virus = assay: Antiviral activity against YFV infected in BHK-21 cells assessed as inhibition of virus-induced cytopathogenicity after 3 to 4 days by MTT assay; type: functional, organism-based
[3] = Selectivity index, ratio of CC50 for MDBK cells to EC50 for BVDV; parameters: species or system Bovine viral diarrhea virus 1
[4] = Cytotoxicity against MDBK cells assessed as cell viability after 48 to 96 hrs by MTT assay; type: cell-based, Bos taurus; settings: cattle
[5] = test system: Mammalian orthoreovirus 1; assay: Antiviral activity against Reo-1 virus infected in BHK-21 cells assessed as inhibition of virus-induced cytopathogenicity after 3 to 4 days by MTT assay; type: functional, cell-based; settings: Mammalian orthoreovirus 1, BHK-21
[6] = Cytotoxicity against BHK cells assessed as cell viability after 48 to 96 hrs by MTT assay; type: cell-based, Mesocricetus auratus; settings: hamster
[7] = Cytotoxicity against human MT4 cells assessed as cell viability after 96 hrs by MTT assay; type: cell-based
[8] = test system: Vesicular stomatitis virus; assay: Antiviral activity against VSV; type: functional, organism-based
[9] = Cytotoxicity against african green monkey Vero 76 cells assessed as cell viability after 48 to 96 hrs by crystal violet staining method; type: cell-based; settings: chlorocebus sabaeus
Human alphaherpesvirus 1 = assay: Antiviral activity against HSV1; type: functional, organism-based
Poliovirus 1 = assay: Antiviral activity against Human poliovirus 1 Sabin infected in african green monkey Vero76 cells assessed as inhibition of virus-induced cytopathogenicity by plaque reduction assay; type: functional, organism-based; settings: Enterovirus C, Vero 76
[10] = test system: Bovine viral diarrhea virus 1; assay: Antiviral activity against BVDV infected in MDBK cells assessed as inhibition of virus-induced cytopathogenicity after 3 to 4 days by MTT assay; type: functional, organism-based; settings: Bovine viral diarrhea virus isolates and strains
[11] = biological target: T1, Peroxisome proliferator-activated receptor alpha (Homo sapiens) (UniProt Q07869); assay: Agonist activity at human PPAR alpha in human HepG2 cells after 20 hrs by luciferase reporter assay; type: cell-based
T1 sequence (whole entry): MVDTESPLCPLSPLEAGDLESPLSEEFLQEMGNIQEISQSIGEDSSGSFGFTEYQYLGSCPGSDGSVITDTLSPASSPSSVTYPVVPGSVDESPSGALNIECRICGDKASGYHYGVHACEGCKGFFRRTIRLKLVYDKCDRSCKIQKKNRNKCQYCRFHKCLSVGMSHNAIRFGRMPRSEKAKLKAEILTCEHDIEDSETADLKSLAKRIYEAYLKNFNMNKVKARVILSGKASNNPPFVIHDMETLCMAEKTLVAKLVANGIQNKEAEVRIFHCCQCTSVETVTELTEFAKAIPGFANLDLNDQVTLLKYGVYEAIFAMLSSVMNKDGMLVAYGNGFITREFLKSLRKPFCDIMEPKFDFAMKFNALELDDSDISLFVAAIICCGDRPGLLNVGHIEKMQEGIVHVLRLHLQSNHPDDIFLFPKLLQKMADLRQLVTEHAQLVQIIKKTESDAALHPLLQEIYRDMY

[12] = biological target: T2, Peroxisome proliferator-activated receptor gamma (Homo sapiens) (UniProt P37231); assay: Agonist activity at human PPAR gamma in human HepG2 cells after 20 hrs by luciferase reporter assay; type: cell-based
T2 sequence (whole entry): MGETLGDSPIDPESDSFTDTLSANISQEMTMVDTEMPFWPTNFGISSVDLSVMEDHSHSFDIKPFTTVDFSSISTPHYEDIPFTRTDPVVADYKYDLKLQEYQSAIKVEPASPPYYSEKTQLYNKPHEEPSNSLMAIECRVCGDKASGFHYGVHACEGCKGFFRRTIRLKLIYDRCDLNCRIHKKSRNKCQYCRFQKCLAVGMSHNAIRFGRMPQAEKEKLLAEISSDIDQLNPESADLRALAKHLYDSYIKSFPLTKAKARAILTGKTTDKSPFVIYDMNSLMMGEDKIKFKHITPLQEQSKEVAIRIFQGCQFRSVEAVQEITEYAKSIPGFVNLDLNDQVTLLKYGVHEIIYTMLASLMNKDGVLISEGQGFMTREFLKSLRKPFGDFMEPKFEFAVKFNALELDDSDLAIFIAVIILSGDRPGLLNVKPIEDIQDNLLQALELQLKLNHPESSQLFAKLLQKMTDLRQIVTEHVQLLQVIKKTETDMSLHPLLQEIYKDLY

[13] = test system: Human immunodeficiency virus 1; assay: Antiviral activity against HIV-1 infected in MT4 cells assessed as inhibition of virus-induced cytopathogenicity after 4 days by MTT assay; type: functional, organism-based; settings: Human immunodeficiency virus 1, MT4, 96 h
[14] = Selectivity index, ratio of CC50 for african green monkey Vero76 cells to EC50 for human RSV; parameters: species or system human respiratory syncytial virus, Vero 76
[15] = Selectivity index, ratio of CC50 for BHK-21 cells to EC50 for YFV; parameters: species or system Yellow fever virus
West Nile virus = assay: Antiviral activity against WNV infected in BHK-21 cells assessed as inhibition of virus-induced cytopathogenicity after 3 to 4 days by MTT assay; type: functional, organism-based
dengue virus type 2 = assay: Antiviral activity against DENV-2 infected in BHK-21 cells assessed as inhibition of virus-induced cytopathogenicity after 3 to 4 days by MTT assay; type: functional, organism-based
Influenza B virus = assay: Antiviral activity against Influenza B virus; type: functional

Compound	Ratio CC50/EC50 [1]	EC50 (Human orthopneumovirus) [µM]	EC50 (Coxsackievirus B5) [µM]	Ratio CC50/EC50 [2]	EC50 (Vaccinia virus) [µM]	EC50 (Yellow fever virus) [µM]	Ratio CC50/EC50 [3]	CC50 [4] [µM]	EC50 [5] [µM]	CC50 [6] [µM]	CC50 at 96 h [7] [µM]	EC50 [8] [µM]	CC50 [9] [µM]	EC50 (Human alphaherpesvirus 1) [µM]	EC50 (Poliovirus 1) [µM]	EC50 [10] [µM]	EC50 [13] [µM]	Ratio CC50/EC50 [14]	Ratio CC50/EC50 [15]	further results
C#C[C@@]1(O)[C@H](O)[C@@H](CO)O[C@H]1n1ccc(N)nc1=O [2'-ETHYNYL-D-CYTIDINE]	>3.3	> 100	30	>4	> 100	> 100	>2.6	> 100	> 100	> 100	> 100	> 100	> 100	> 100	25	–	–	–	–	–
COc1ccc2nn(-c3ccc(OCC(C)(C)C(=O)O)cc3)nc2c1	2.71	11	24	–	> 100	> 100	>1.51	> 100	–	100	≥ 100	> 100	65	–	> 100	66	> 100	5.91	–	Activity [11]: inactive; Activity [12]: inactive
CC(C)(CCCOc1ccc(-n2nc3ccccc3n2)cc1)C(=O)O	6.25	5	4	–	> 100	> 100	2.26	61	–	31	47	> 100	25	–	> 100	27	> 100	5	–	Activity [11]: inactive; Activity [12]: inactive
FC(F)(F)c1ccc2c(c1)nnn2C[C@@H]1CCCN2CCCC[C@H]12	>2.63	90	38	–	> 100	27	–	> 100	> 100	> 100	> 100	> 100	> 100	> 100	> 100	> 100	> 100	>1.11	>3.7	–
COc1ccc2nn(-c3ccc(OCCCC(C)(C)C(=O)O)cc3)nc2c1	10	> 100	2	–	> 100	> 100	2.27	> 100	–	50	28	> 100	20	–	> 100	44	> 100	–	–	–
CC(=O)Nc1ccc(-n2nc3ccccc3n2)cc1	>2.5	> 100	40	–	> 100	> 100	1.43	100	83	> 100	66	> 100	> 100	–	> 100	70	> 100	–	–	–
CC(C)(COc1ccc(-n2nc3ccc(Cl)cc3n2)cc1)C(=O)O	23.53	12	1.7	–	> 100	> 100	2.47	52	–	47	94	> 100	40	–	> 100	21	> 100	3.33	–	–
CC(C)(COc1ccc(-n2nc3ccccc3n2)cc1)C(=O)O	–	25	> 100	–	> 100	> 100	>2.27	> 100	–	> 100	> 100	> 100	70	–	> 100	44	> 100	2.8	–	Activity [11]: inactive; Activity [12]: inactive
C[C@@]1(O)[C@H](O)[C@@H](CO)O[C@H]1n1cnc2c(=O)[nH]c(N)nc21 [2'-B-METHYL-GUANOSINE]	>5	> 100	20	–	> 100	1.5	>58.8	> 100	–	> 60	> 100	> 100	> 100	> 100	> 100	–	–	–	>66.7	EC50 (West Nile virus): 0.7 µM; EC50 (dengue virus type 2): 1.2 µM
Cc1cc(CCCOc2c(C)cc(-c3noc(C(F)(F)F)n3)cc2C)on1 [PLECONARIL]	–	–	0.008	35	–	–	–	–	–	–	–	–	70	–	2	–	–	–	8750	–
O=c1cnn([C@@H]2O[C@H](CO)[C@@H](O)[C@H]2O)c(=O)[nH]1 [6-AZAURIDINE]	–	1.2	> 100	–	11	–	–	> 100	> 100	> 100	–	> 100	–	> 100	> 100	> 100	–	16.7	>3.8	–
COc1ccc(-n2nc3ccc(C(F)(F)F)cc3n2)cc1	>1.25	> 100	80	>2.5	> 100	> 100	–	> 100	> 100	> 100	> 100	> 100	> 100	> 100	40	> 100	> 100	–	–	–
Oc1ccc(-n2nc3ccccc3n2)cc1	–	–	> 100	12.86	> 100	≥ 83	>5.88	≥ 100	–	83	> 100	> 100	90	–	7	17	> 100	–	–	–
Nc1ccc(-n2nc3ccccc3n2)cc1	–	> 100	> 100	–	> 100	75	2.86	100	90	100	≥ 100	> 100	> 100	–	> 100	35	> 100	–	1.33	–
Clc1cc2nnn(C3CCCCO3)c2cc1Cl (stereo unspecified)	–	–	–	1.67	–	> 100	–	> 100	> 100	> 100	> 100	> 100	≥ 100	> 100	60	> 100	> 100	–	–	–
Oc1ccc2nn[nH]c2c1/N=N/c1ccc(Cl)cc1	–	–	–	–	–	–	–	–	–	–	–	–	–	–	–	–	–	–	–	EC75 (Influenza B virus): 4.3 µM
